Molecules are shown by their SMILES.

One experiment deals with T1, EGFR tyrosine kinase (Homo sapiens, UniProt P00533).
T1 construct: Recombinant intracellular fragments of EGFR, erbB2 and erbB4; made in house; host or cells: baculovirus/Sf21 insect cells (cleared lysate)
In words: Protein tyrosine kinase phosphorylation assay, Test (a), EGFR. The experiment is classed as biochemical. To be noted: recombinant intracellular fragment, ATP at Km concentration; read-out: IC50 (μM) Test (a): Inhibition of EGFR tyrosine kinase protein phosphorylation. On the procedure:
(§1) This test measures the ability of a test compound to inhibit the phosphorylation of a tyrosine containing polypeptide substrate by EGFR, erbB2 and erbB4 tyrosine kinase enzyme.
(§2) Recombinant intracellular fragments of EGFR, erbB2 and erbB4 (accession numbers X00588, X03363 and L07868 respectively) were cloned and expressed in the baculovirus/Sf21 system. […]
(§3) Constitutive kinase activity of these recombinant proteins was determined by their ability to phosphorylate a synthetic peptide (made up of a random co-polymer of Glutamic Acid, Alanine and Tyrosine in the ratio of 6:3:1). […]
(§4) The immobilised phospho-peptide product of the reaction was detected by immunological methods. […] After further washing, HRP activity in each well of the plate was measured colorimetrically using 22′-Azino-di-[3-ethylbenzthiazoline sulfonate (6)] diammonium salt crystals (ABTS™ from Roche) as a substrate.
(§5) Kinase inhibition for a given compound was expressed as an IC50 value. […] The range of phosphorylation was calculated from the positive (vehicle plus ATP) and negative (vehicle minus ATP) control values.

For the next experiment, the target named is T2, erbB2 tyrosine kinase (Homo sapiens, UniProt P04626).
T2 construct: Recombinant intracellular fragments of EGFR, erbB2 and erbB4; made in house; host or cells: baculovirus/Sf21 insect cells (cleared lysate)
The experiment in a line: Protein tyrosine kinase phosphorylation assay, Test (a), erbB2. It counts as biochemical. The settings on record: recombinant intracellular fragment, ATP at Km concentration; read-out: IC50 (μM) Test (a): Inhibition of erbB2 tyrosine kinase protein phosphorylation. On the procedure:
as §1, §2, §3, §4, §5

Another experiment has as its target T3, erbB2 (Homo sapiens, UniProt P04626).
T3 construct: to give a cell line that overexpresses full length wild type erbB2 protein; expressed in transfected cells; host or cells: MCF7 (breast carcinoma) derived 'Clone 24' cells
The experiment in a line: Clone 24 phospho-erbB2 cell assay, Test (d). The experiment is classed as cell-based. To be noted: MCF7 derived cell line (Clone 24) overexpressing erbB2, 4 hours; read-out: IC50 (μM) Test (d): Inhibition of phosphorylation of erbB2. How it is done: The cells were resuspended in Growth Medium.
Plates were returned to the incubator for 4 hours and then 20 μl of 20% formaldehyde solution in PBS was added to each well and the plate was left at room temperature for 30 minutes. This fixative solution was removed with a multichannel pipette, 100 μl of PBS was added to each well and then removed with a multichannel pipette and then 50 μl PBS was added to each well. Plates were then sealed and stored for up to 2 weeks at 4° C.
Immunostaining was performed at room temperature. […] Then this primary antibody solution was removed from the wells using a plate washer followed by two 200 μl PBS/Tween 20 washes using a plate washer. […] From now onwards, wherever possible, plates were protected from light exposure, at this stage by sealing with black backing tape.
The Fluorescence signal is each well was measured using an Acumen Explorer Instrument (Acumen Bioscience Ltd.), a plate reader that can be used to rapidly quantitate features of images generated by laser-scanning. […] Fluorescence dose response data obtained with each compound was exported into a suitable software package (such as Origin) to perform curve fitting analysis. Inhibition of erbB2 phosphorylation was expressed as an IC50 value.

T3 sequence (P04626 23-1255): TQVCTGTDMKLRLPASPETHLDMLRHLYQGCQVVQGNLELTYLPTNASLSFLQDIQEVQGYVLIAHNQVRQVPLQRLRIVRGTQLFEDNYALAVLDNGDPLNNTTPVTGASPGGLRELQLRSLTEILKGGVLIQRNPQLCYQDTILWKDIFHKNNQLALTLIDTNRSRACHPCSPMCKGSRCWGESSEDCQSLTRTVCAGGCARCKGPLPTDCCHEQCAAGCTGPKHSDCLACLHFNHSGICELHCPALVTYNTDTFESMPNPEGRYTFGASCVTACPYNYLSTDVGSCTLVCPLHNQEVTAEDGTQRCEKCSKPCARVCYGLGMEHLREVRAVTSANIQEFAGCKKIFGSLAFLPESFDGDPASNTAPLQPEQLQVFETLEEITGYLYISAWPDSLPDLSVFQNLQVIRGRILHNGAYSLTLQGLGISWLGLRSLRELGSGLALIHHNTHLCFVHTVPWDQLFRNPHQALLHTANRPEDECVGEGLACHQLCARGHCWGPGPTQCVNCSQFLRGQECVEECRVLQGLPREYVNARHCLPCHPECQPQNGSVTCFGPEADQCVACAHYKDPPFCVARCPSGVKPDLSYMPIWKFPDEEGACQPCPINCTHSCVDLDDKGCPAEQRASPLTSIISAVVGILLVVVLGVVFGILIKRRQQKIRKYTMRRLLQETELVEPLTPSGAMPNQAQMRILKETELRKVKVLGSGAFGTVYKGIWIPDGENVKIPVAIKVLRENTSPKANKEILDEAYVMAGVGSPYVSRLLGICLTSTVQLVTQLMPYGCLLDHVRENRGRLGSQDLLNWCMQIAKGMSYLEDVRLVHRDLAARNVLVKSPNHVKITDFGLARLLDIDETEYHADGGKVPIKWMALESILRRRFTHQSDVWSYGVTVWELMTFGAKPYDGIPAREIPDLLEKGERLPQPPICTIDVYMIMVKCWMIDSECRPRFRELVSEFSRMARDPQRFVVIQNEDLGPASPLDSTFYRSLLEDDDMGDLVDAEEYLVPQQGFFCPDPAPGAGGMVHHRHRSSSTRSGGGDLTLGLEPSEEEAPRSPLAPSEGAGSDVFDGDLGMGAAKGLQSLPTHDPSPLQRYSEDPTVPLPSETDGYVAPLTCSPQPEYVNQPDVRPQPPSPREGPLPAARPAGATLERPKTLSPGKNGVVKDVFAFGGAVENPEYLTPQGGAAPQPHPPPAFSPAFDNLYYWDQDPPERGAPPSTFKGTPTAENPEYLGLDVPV
T1 sequence (P00533 669-1210 limits assumed): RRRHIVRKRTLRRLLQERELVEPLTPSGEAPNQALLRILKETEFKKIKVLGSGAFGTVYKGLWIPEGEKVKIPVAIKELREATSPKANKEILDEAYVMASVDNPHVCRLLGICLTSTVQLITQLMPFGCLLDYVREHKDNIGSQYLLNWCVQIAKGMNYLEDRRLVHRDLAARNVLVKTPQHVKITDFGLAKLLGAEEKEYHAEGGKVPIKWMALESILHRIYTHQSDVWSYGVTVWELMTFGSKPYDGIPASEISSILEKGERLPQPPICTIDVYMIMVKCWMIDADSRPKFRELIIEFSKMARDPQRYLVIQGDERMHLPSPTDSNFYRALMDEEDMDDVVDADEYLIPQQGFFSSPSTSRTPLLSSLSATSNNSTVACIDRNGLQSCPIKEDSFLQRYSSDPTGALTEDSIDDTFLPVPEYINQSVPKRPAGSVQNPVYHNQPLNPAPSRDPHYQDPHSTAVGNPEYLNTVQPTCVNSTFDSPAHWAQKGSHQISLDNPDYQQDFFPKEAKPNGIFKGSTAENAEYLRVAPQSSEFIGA
T2 sequence (P04626 676-1255 limits assumed): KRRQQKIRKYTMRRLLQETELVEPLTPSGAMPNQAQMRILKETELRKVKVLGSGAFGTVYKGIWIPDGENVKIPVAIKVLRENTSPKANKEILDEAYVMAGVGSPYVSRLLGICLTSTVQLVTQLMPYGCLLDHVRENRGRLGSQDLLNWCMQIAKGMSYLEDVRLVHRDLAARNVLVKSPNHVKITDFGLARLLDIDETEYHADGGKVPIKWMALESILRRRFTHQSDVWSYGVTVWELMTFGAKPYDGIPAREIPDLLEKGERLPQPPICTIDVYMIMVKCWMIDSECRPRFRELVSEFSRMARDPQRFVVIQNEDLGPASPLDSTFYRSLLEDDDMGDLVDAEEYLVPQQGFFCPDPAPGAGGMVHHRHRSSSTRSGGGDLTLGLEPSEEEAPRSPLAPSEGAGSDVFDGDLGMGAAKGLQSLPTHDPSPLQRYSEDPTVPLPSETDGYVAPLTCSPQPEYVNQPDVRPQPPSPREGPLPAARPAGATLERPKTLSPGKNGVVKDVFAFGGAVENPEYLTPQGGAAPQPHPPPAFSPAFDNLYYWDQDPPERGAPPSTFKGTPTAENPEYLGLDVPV

As to `Cc1ccc(Oc2ccc(Nc3ncnc4[nH]nc(OCCN5CCOCC5)c34)cc2C)cn1` [Example 42, N-{3-methyl-4-[(6-methylpyridin-3-yl)oxy]phenyl}-3-(2-morpholin-4-ylethoxy)-1H-pyrazolo[3,4-d]pyrimidin-4-amine], the IC50 on EGFR tyrosine kinase was 0.71 µM; on erbB2 tyrosine kinase it was 0.027 µM; on erbB2, 0.083 µM.

For orientation: IC50 means the concentration that gives 50% inhibition.

The values above are taken from patent US7947676B2, “Pyrazolo[3,4-d]pyrimidine compounds as antitumor agents” (AstraZeneca AB, priority 2004, dated 2011).
